Literature values, collected in patent publication US20230193011A1, “COLOR CHANGING POLYMERIC RESIN COMPOSITIONS” (ECOLAB USA INC., priority 2021, published 2023).
Like-named read-outs stand apart in the source and are kept apart here.

Details: for High pH color: color above the transition range; for Low pH color: color below the transition range; for pH start: pH at which the color change begins; for pH end: pH at which the color change ends
[1] = listed as Malachite green - step 2

Compound	High pH color	Low pH color	pH start	pH end	pKa	other results
Nc1c(/N=N/c2ccc(-c3ccc(/N=N/c4cc(S(=O)(=O)O)c5ccccc5c4N)cc3)cc2)cc(S(=O)(=O)O)c2ccccc12 [Congo red]	red	blue-violet	3.0	5.0		
Cc1cc(O)c(C(C)C)cc1C1(c2cc(C(C)C)c(O)cc2C)OS(=O)(=O)c2ccccc21 [Thymol blue - step 1, Thymol blue]	yellow	red	1.2	2.8	1.7	High pH color (listed as Thymol blue - step 2): blue; Low pH color (listed as Thymol blue - step 2): yellow; pKa (listed as Thymol blue - step 2): 9.2; pH start (listed as Thymol blue - step 2): 8.0; pH end (listed as Thymol blue - step 2): 9.6
Cc1cc(C2(c3ccc(O)c(C)c3)OS(=O)(=O)c3ccccc32)ccc1O [Cresol red - step 1, Cresol red]	yellow	red	0.2	1.8		High pH color (listed as Cresol red - step 2): reddish-; Low pH color (listed as Cresol red - step 2): yellow; pH start (listed as Cresol red - step 2): 7.2; pH end (listed as Cresol red - step 2): 8.8
Cc1c(C2(c3cc(C(C)C)c(O)c(Br)c3C)OS(=O)(=O)c3ccccc32)cc(C(C)C)c(O)c1Br [Bromothymol blue]	blue	yellow	6.0	7.6		
Cc1cc2nc3ccc(N(C)C)cc3nc2cc1N.Cl [Neutral red]	yellow	red	6.8	8.0		
Cc1c(C2(c3cc(Br)c(O)c(Br)c3C)OS(=O)(=O)c3ccccc32)cc(Br)c(O)c1Br [Bromocresol green]	blue	yellow	3.8	5.4	4.7	
O=S1(=O)OC(c2cc(Br)c(O)c(Br)c2)(c2cc(Br)c(O)c(Br)c2)c2ccccc21 [Bromophenol blue]	blue	yellow	3.0	4.6		
O=C1OC(c2ccc(O)c3ccccc23)(c2ccc(O)c3ccccc23)c2ccccc21 [Naphtholphthalein]	greenish-	pale red	7.3	8.7		
CN(C)c1ccc(/N=N/c2ccccc2C(=O)O)cc1 [Methyl red]	yellow	red	4.4	6.2	5.1	
CN(C)c1ccc(N=Nc2ccccc2)cc1 [Methyl yellow]	yellow	red	2.9	4.0	3.3	
Azolitmin [Azolitmin (litmus)]	blue	red	4.5	8.3		
Cc1cc(C2(c3cc(C)c(O)c(Br)c3)OS(=O)(=O)c3ccccc32)cc(Br)c1O [Bromocresol purple]	purple	yellow	5.2	6.8	6.4	
CN(C)c1ccc(N=Nc2ccc(S(=O)(=O)[O-])cc2)cc1.[Na+] [Methyl orange]	yellow	red	3.1	4.4	3.5	
O=C(O)c1cc(N=Nc2ccc([N+](=O)[O-])cc2)ccc1O [Alizarin yellow R]	red	yellow	10.1	12.0	11.2	
O=C1OC(c2ccc(O)cc2)(c2ccc(O)cc2)c2ccccc21 [Phenolphthalein]	red-pink	colorless	8.3	10.0	9.5	
O=C1/C(=C2\Nc3ccc(S(=O)(=O)[O-])cc3C2=O)Nc2ccc(S(=O)(=O)[O-])cc21.[Na+].[Na+] [Indigo carmine]	yellow	blue	11.4	13.0		
Methyl purple	green	purple	4.8	5.4		
Cc1cc(C2(c3ccc(O)c(C)c3)OC(=O)c3ccccc32)ccc1O [Cresolphthalein]	purple	colorless	8.2	9.8		
Cc1cc(O)c(C(C)C)cc1C1(c2cc(C(C)C)c(O)cc2C)OC(=O)c2ccccc21 [Thymolphthalein]	blue	colorless	9.0	10.5	9.2	
CN(C)c1ccc(C(=C2C=CC(=[N+](C)C)C=C2)c2ccccc2)cc1 [Malachite green - step 1, Malachite green]	green	yellow	0.2	1.8		High pH color [1]: colorless; Low pH color [1]: green; pH start [1]: 11.5; pH end [1]: 13.2
